Experiments:
4D2 = target: T1, 4D2; test: […] Å crystal structure (MAD); hemin titration by UV/visible; nondenaturing MS; assay type: binding, synthetic construct
T1 construct: single-chain de novo four-helix bundle, 112 amino acids after TEV cleavage

m4D2 [1] = target: T2, m4D2; test: hemin titration of apo-m4D2 by UV/visible; nondenaturing MS ([…]); assay type: binding, synthetic construct
T2 construct: monoheme redesign of 4D2

m4D2 [2] = target: T2, m4D2; test: binding titration; 2D/3D NMR of the complex; set-up: species or system synthetic construct

C=CC1=C(C)C2=Cc3c(C=C)c(C)c4[n]3[Fe][n]3c(c(C)c(CCC(=O)O)c3=CC3=NC(=C4)C(C)=C3CCC(=O)O)=CC1=N2 [heme B]
Kd (4D2): < 5 nM | Kd (m4D2 [1]): 4.2 nM

CC1=C(C)C2=[N+]3C1=Cc1c(C)c(CCC(=O)O)c4[n]1[Fe-]31[n]3c(c(C)c(C)c3=CC3=[N+]1C(=C4)C(CCC(=O)O)=C3C)=C2 (stereo not drawn) [Fe(III) DMDPIX]
Kd (m4D2 [2]): 25 nM

From article PMC10400981, “An expandable, modular de novo protein platform for precision redox engineering” (Proceedings of the National Academy of Sciences of the …, 2023)
